Earlier results, collected in US20060135482A1, “Use of fosinopril to reduce cardiovascular events in disalysis patients” (priority 2002, published 2006).
Read-outs that look alike come from different tables or passages of the source. One block for each compound: values may come before it.

Assays:
[1] = patients Clcr<30 ml/min
[2] = 10 days; renal insufficiency patients
[3] = varying degrees of renal insufficiency incl. severe (Clcr<10 ml/min); relative to normal renal function
[4] = blood dialysis or peritoneal dialysis patients with terminal renal insufficiency
[5] = normal liver and kidney function; hepatic clearance increases if renal function impaired

AUCd10/AUCd1 (accumulation ratio, area under the curve day 10/day 1) ([1]; enalapril 2.5 mg/day for 10 days, p=0.02 versus fosinopril): 1.96
Structure (SMILES): CCOC(=O)[C@H](CCc1ccccc1)N[C@@H](C)C(=O)N1CCC[C@H]1C(=O)O [enalapril]

AUCd10/AUCd1 (accumulation ratio, area under the curve day 10/day 1) ([1]; lisinopril 5 mg/day for 10 days, p<0.001 versus fosinopril): 2.57
Structure (SMILES): NCCCC[C@H](N[C@@H](CCc1ccccc1)C(=O)O)C(=O)N1CCC[C@H]1C(=O)O [lisinopril]

AUCd10/AUCd1 (accumulation ratio, area under the curve day 10/day 1) ([1]; fosinopril 10 mg/day for 10 days, comparison versus enalapril, p=0.02): 1.41 | AUCd10/AUCd1 (accumulation ratio, area under the curve day 10/day 1) ([1]; fosinopril 10 mg/day for 10 days, comparison versus lisinopril, p<0.001): 1.3
Structure (SMILES): CCC(=O)O[C@@H](O[P@](=O)(CCCCc1ccccc1)CC(=O)N1C[C@H](C2CCCCC2)C[C@H]1C(=O)O)C(C)C [fosinopril, (2S,4S)-4-cyclohexyl-1-[2-[(R)-[[(S)-2-methyl-1-(propanoyl-oxy)propyl]oxy](4-phenylbutyl)phosphinoyl]acetyl]pyrrolidine-2-carboxylic acid]
Accumulation on repeated administration [2]: accumulates less than enalapril or lisinopril | Total clearance of the medicament [3]: about half of that observed in an individual with normal renal function | Pharmacokinetic parameters [4]: remain comparable with those observed in patients with mild, moderate or severe renal insufficiency | Elimination route [5]: eliminated in equal parts via the liver and the kidneys
